Reference: PMC11725774 (Cancer Research Communications, 2025)

How the values were obtained:
TUS/R line 3 (MOLM-14) = test: Growth inhibition of TUS-resistant subline; assay type: cell-based, human; conditions: Homo sapiens
[1] = Repeat daily dose toxicity in dogs; assay type: in vivo
Description: (§1) In both species, all adverse events were reversible. There were no alterations in clinical chemistry parameters. Neuropharmacology and respiratory function assessment in rats disclosed no concerns.

TUS/R line 2 (MOLM-14) = test: Growth inhibition of TUS-resistant subline; assay type: cell-based; conditions: Homo sapiens, MOLM-14, read-out: IC50 (nmol/L), Mean ± SEM, TUS/R line 2
[2] = Repeat daily dose toxicity and safety pharmacology in rats; assay type: in vivo
Description: as §1

[3] = system: Ba/F3 cells expressing various mutant forms of FLT3; test: Growth inhibition of Ba/F3 cells; assay type: cell-based, murine; conditions: Mus musculus, BaF3; Ba/F3, various mutant forms of FLT3, range
Procedure: (§2) MV-4-11 (CRL-9591), HS-5 (CRL-3611), and KG1a (CCL-246.1) cells were obtained from ATCC. MOLM-13 (ACC 554) and MOLM-14 (ACC 777) were obtained from DSMZ (Deutsche Sammlung von Mikroorganismen und Zellkulturen). MOLM-14 cells contain one WT FLT3 allele and one FLT3-ITD allele. MOLM-14 FLT3-ITD/F691 cells were prepared by transfection of MOLM-14 cells with a vector expressing the FLT3 TKD F691L mutation. MV-4-11 cells expressing NRAS^G12D were prepared by transduction with a lentiviral vector encoding the NRAS^G12D mutation. Assays using a panel of parental Ba/F3 into which an additional copy of either WT or a mutant form of FLT3 was introduced were performed at Kyinno Biotechnology Co., Ltd. All cell lines were short tandem repeat authenticated at ATCC or at DSMZ when originally obtained, and no further authentication was done after receipt of the cells in the laboratory.
(§3) Assays using Ba/F3 cells expressing WT and mutant forms of FLT3 were performed by Kyinno Biotechnology. The cells were cultured in the medium recommended by the source for each cell line. Growth inhibition assays were performed using either Cell Titer 96 Aqueous One Solution Cell Proliferation assay (Promega, # G3581) or CCK8 (Dojindo, # CK-04). […] IC50 values were determined from growth inhibition curves fitted using GraphPad Prism and a nonlinear regression model with sigmoidal dose response. […]

TUS/R line 1 (MOLM-14) = test: Growth inhibition of TUS-resistant subline; assay type: cell-based; conditions: Homo sapiens, MOLM-14, read-out: IC50 (nmol/L), Mean ± SEM, TUS/R line 1
[4] = system: AML cell lines expressing FLT3 ITD (MV-4-11, MOLM-13, and MOLM-14); test: Growth inhibition of AML cell lines; assay type: cell-based; conditions: Homo sapiens; range over MV-4-11, MOLM-13, MOLM-14
Procedure: as §2, §3

[5] = Pharmacokinetics and tissue distribution in mice; assay type: in vivo
[6] = system: MV-4-11 NRAS G12D Clone 1; test: Growth inhibition of NRAS G12D clone; assay type: cell-based, human
Procedure: (§4) MV-4-11 cells expressing NRAS^G12D were prepared by transduction with a lentiviral vector encoding the NRAS^G12D mutation. Assays using a panel of parental Ba/F3 into which an additional copy of either WT or a mutant form of FLT3 was introduced were performed at Kyinno Biotechnology Co., Ltd. All cell lines were short tandem repeat authenticated at ATCC or at DSMZ when originally obtained, and no further authentication was done after receipt of the cells in the laboratory.
(§5) Assays using Ba/F3 cells expressing WT and mutant forms of FLT3 were performed by Kyinno Biotechnology. The cells were cultured in the medium recommended by the source for each cell line. Growth inhibition assays were performed using either Cell Titer 96 Aqueous One Solution Cell Proliferation assay (Promega, # G3581) or CCK8 (Dojindo, # CK-04). […] IC50 values were determined from growth inhibition curves fitted using GraphPad Prism and a nonlinear regression model with sigmoidal dose response. Unless otherwise indicated, data are presented as mean ± SEM.

[7] = system: MV-4-11 NRAS G12D Clone 15; test: Growth inhibition of NRAS G12D clone; assay type: cell-based, human
Procedure: as §4, §5

[8] = system: MV-4-11 NRAS G12D Clone 4; test: Growth inhibition of NRAS G12D clone; assay type: cell-based, human; conditions: Homo sapiens, MV4-11; MV-4-11 NRAS G12D, high expression; mean ± SEM; read-out: GI50 (nM) Clone 4
Procedure: as §4, §5

[9] = system: BIM in parental MOLM-14 cells; test: Western blot of apoptotic proteins; conditions: 75 nmol/L TUS, 48-hour exposure
[10] = Tolerability in orthotopic AML models; assay type: in vivo; conditions: daily dosing at 30 mg/kg, all three orthotopic models
Description: ; Fig. 3A). The increase in the MOLM-13 model was from 37 to 75 days (P < 0.0001; Fig. 3B) and in the MOLM-14 model, it was from 17 to 65 days (Fig. 3C).

CYP2C8 = CYP2C8 (Homo sapiens, UniProt P10632); test: CYP inhibition; assay type: in vitro ADME
CYP2C8, sequence (P10632 whole entry): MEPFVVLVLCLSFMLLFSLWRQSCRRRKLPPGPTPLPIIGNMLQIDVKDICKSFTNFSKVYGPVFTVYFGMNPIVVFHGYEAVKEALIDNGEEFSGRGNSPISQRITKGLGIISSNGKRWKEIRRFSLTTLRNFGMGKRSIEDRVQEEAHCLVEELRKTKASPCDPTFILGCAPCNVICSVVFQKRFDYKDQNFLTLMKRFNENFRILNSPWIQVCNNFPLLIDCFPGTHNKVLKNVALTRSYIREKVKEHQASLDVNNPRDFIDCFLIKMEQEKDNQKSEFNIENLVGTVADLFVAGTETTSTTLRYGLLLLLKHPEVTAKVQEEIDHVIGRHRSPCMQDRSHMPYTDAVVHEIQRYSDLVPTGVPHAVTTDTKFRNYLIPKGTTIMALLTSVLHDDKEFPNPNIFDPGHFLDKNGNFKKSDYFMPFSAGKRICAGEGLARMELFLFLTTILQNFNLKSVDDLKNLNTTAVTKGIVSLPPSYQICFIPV

[11] = mouse, plasma, mice, oral doses of 1, 3, 10, and 30 mg/kg
[12] = 13 to […]-fold increase in NRAS G12D expression
[13] = Homo sapiens, MV4-11, MV-4-11 NRAS G12D, mean ± SEM

SMILES: Cc1ccc2c(-c3nc(Nc4cc(CN5C[C@@H](C)N[C@@H](C)C5)cc(C5CC5)c4)ncc3Cl)c[nH]c2c1 [TUS, Tuspetinib]
- GI50 (TUS/R line 3 (MOLM-14); MOLM-14, read-out: GI50 (nM) TUS/R line 3, mean ± SEM (Supplementary Table 6)): 108 ± 24 nM
- IC50 (TUS/R line 3 (MOLM-14); MOLM-14, read-out: IC50 (nmol/L), Mean ± SEM, TUS/R line 3): 108 ± 24 nmol/L
- main toxicity findings ([1]; dogs, repeat daily dose up to 4 weeks): leucocyte depletion, decreased thymus and spleen weights, and tremors
- cardiovascular effects ([1]; single dose and 4-week dog toxicology studies): No treatment-related cardiovascular effects
- IC50 (TUS/R line 2 (MOLM-14)): 120 ± 29.4 nmol/L
- Neuropharmacology and respiratory function assessment [2]: no concerns
- main target organ of toxicity ([2]; repeat daily dose up to 4 weeks): lymphoid organs
- GI50 [3]: 2.5 to 56 nM
- IC50 (TUS/R line 1 (MOLM-14)): 183 ± 69.5 nmol/L
- GI50 [4]: 1.3 to 5.2 nM
- dose proportionality of systemic exposure ([5]; mice, oral 1 to 30 mg/kg): greater than dose proportional
- clearance ([5]; mouse, plasma, male mice, single intravenous dose of 3 mg/kg): 5 mL/min/kg
- Vd ([5]; mouse, plasma, male mice, single intravenous dose of 3 mg/kg, read-out: Vss): 2.4 L/kg
- half-life ([5]; mouse, plasma, male mice, single intravenous dose of 3 mg/kg, read-out: terminal plasma half-life (converted)): 330 min
- Tmax [5, 11]: 1 to 4 h
- bioavailability [5, 11]: 21.4 to 47.2%
- change in sensitivity, clone 1 [6, 12]: did not alter sensitivity
- GI50 [6, 13]: 8.7 ± 3 nM
- change in sensitivity, clone 15 [7, 12]: did not alter sensitivity
- GI50 [7, 13]: 7.7 ± 3.1 nM
- GI50 [8]: 69.9 ± 7.4 nM
- increase of BIM [9]: 10 fold
- tolerability / weight loss [10]: well tolerated in mice with no significant weight loss
- Ki (CYP2C8): < 1000 nM
